Assay results taken from US3989835A, “Method of using 6-substituted amino phenyl-2,3,5,6-tetra-hydro[2,1-b]thiazoles for controlling gastrointestinal nematodes” (American Cyanamid Company, priority 1974, dated 1976).
Values joined by “and” are separate entries in the source; they are usually repeats but may differ in a detail not shown here. Identical values can stand only once. Counter-ions that a name gives are not always drawn. Like-named read-outs stand apart in the source and are kept apart here.

What was measured:
[1] = system: Nematospiroides dubius; assay: Anthelmintic efficacy against N. dubius in mice, single oral dose; assay type: in vivo, Nematospiroides dubius (in albino female mice); conditions: for ED50: Heligmosomoides polygyrus; for Percent Nematospiroides Activity: molar-adjusted
[2] = system: Trichuris vulpis; assay: Oral or subcutaneous activity vs. mature Trichuris vulpis in dogs (critical test); assay type: in vivo
Protocol: (§1) Dogs infected with mature adult whipworms Trichuris vulpis were treated with various single or double doses of unsubstituted or substituted tetramisole analogs by the oral or subcutaneous route (Table XI hereinafter). Whipworms passed in the feces were collected for several days, and the whipworms still present determined at necropsy. Percent efficacy was determined in these "critical" tests. […] Trichuris is a type of nematode refactory to treatment with most prior anthelmintics at well tolerated doses. Taxonomically allied nematodes, e.g., Trichinella and Capillaria are also refractory to most anthelmintics.

[3] = system: helminths; conditions: prior art compounds; cited from earlier work
[4] = system: whipworms; conditions: prior art compounds, especially in dogs; cited from earlier work
[5] = in vivo; conditions: for LD50: mouse, in vivo, po; for Dead/Total: mice
Excerpt: Data on the acute oral toxicity to mice of various single oral doses of the above compounds and several analogs were obtained by conventional procedures, (Table IX hereinafter).

[6] = in vivo; conditions: dog
Protocol: as §1

[7] = system: helminths; assay: Activity against helminths (general statement); conditions: in vivo

SMILES: c1ccc(C2CN3CCSC3=N2)cc1 (racemic) [dl-tetramisole, dl-6-phenyl-2,3,5,6-tetrahydroimidazo[2,1-b]thiazole, reference compound]
- ED50 ([1]; read-out: ED50 (approximate dose which removes 50% of the worms), N. dubius in mice, single oral dose): ~9 mg/kg
- ED50 ([1]; as Base, single oral dose, mice, > indicates inactive at dose shown, read-out: Approx. ED50): 9 mg/kg
- ED50 ([1]; mouse oral, Table IX, read-out: Approx. ED50 vs. N. dubius): 9 mg/kg
- Average % Efficacy ([1]; single oral dose 6 mg./kg.): 7%
- % Efficacy per Group ([1]; single oral dose 8 mg./kg.): 28% and 33% and 39%
- Average % Efficacy ([1]; single oral dose 8 mg./kg.): 33%
- Average % Efficacy ([1]; single oral dose 10 mg./kg., N. dubius, mice): 70%
- % Efficacy per Group ([1]; single oral dose 12 mg./kg.): 60% and 62% and 68% and 73%
- Average % Efficacy ([1]; single oral dose 12 mg./kg.): 66%
- % Efficacy per Group ([1]; single oral dose 16 mg./kg.): 74% and 91% and 92% and 94%
- Average % Efficacy ([1]; single oral dose 16 mg./kg.): 88%
- % Efficacy per Group ([1]; single oral dose 20 mg./kg.): 96% and 98% and 99% and 100%
- Average % Efficacy ([1]; single oral dose 20 mg./kg.): 98%
- oral dose at which inactive (% Efficacy Orally column) ([2]; > means inactive at dose shown, oral): > 10 mg/kg
- % Efficacy SC ([2]; SC 10 Mg./Kg., listed as dl H): 2%
- activity against helminths in words [3]: highly effective against most helminths
- activity against whipworms in words [4]: not sufficiently active against whipworms, especially in dogs

SMILES: c1ccc(C2CN3CCSC3=N2)cc1 (stereo not drawn) [l H, l-6-phenyl-2,3,5,6,-tetrahydroimidazo[2,1-b]thiazole, reference compound]
- % Efficacy SC ([2]; SC 5 Mg./Kg.): 8%
- % Efficacy SC ([2]; SC 10 Mg./Kg.): 50%
- % Efficacy SC ([2]; SC 15 Mg./Kg.): 43%
- % Efficacy SC ([2]; SC 20 Mg./Kg.): 100%
- activity against helminths in words [3]: highly effective against most helminths
- activity against whipworms in words [4]: not sufficiently active against whipworms, especially in dogs

SMILES: Nc1cccc(C2CN3CCSC3=N2)c1 (stereo not drawn) [m-NH2 l, l-6-(m-Aminophenyl)-2,3,5,6-tetrahydroimidazo[2,1-b]thiazoleDihydrochloride]
- ED50 ([1]; po, mouse oral, Table IX, read-out: Approx. ED50 vs. N. dubius): 0.75 mg/kg
- Percent Nematospiroides Activity ([1]; single oral dose 1.25 mg./Kg.): 59%
- Percent Nematospiroides Activity ([1]; single oral dose 2.0 mg./Kg.): 88%
- Percent Nematospiroides Activity ([1]; single oral dose 4.0 mg./Kg.): 98%
- Approx. LD50 /ED50 ([5]; chemotherapeutic index, mouse oral, N. dubius, Table IX): 20
- LD50 ([5]; Approx. LD50, mouse oral, Table IX): 15 mg/kg
- LD50 ([5]; LD50, mice, adjusted to molar equivalents of tetramisole free base): ~15 mg/kg
- Dead/Total ([5]; single oral dose 4-5 Mg./Kg.): 0/12
- Dead/Total ([5]; single oral dose 10 Mg./Kg.): 2/10
- Dead/Total ([5]; single oral dose 15 Mg./Kg.): 3/9
- Dead/Total ([5]; single oral dose 20 Mg./Kg.): 4/5
- % Efficacy SC ([2]; SC 1.25 Mg./Kg.): 72%
- % Efficacy SC ([2]; SC 2.5 Mg./Kg.): 100%
- % Efficacy Orally ([2]; oral 1.25 Mg./Kg.): 94%
- % Efficacy Orally ([2]; oral 2.5 Mg./Kg.): 100%
- % Efficacy Orally ([2]; oral 5 Mg./Kg., based on total worms in all dogs): 100%
- MTD ([6]; po): 10 mg/kg
- MTD ([6]; sc): 4 mg/kg
- activity relative to the dl compound [7]: almost twice as active as the dl compound
